Results taken from article PMC10257182, “Discovery of senolytics using machine learning” (Nature Communications, 2023).
Where “and” joins values, the source holds several entries; their conditions need not be identical. Identical values can stand only once. Like-named read-outs stand apart in the source and are kept apart here.

Key:
Assay type in all cases: cell-based, human
[1] = tested on: non-senescent control IMR90 ER:RAS cells; assay: Nuclei count (Hoechst, high content imaging) senolytic assay, OIS model, non-senescent control cells; details: Homo sapiens
Outline: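 Cells seeded, left 24 h, then dosed across a 10-point […] series (10 μM down to 10 nM) with DMSO control. After 72 h, wells were fixed, permeabilised and stained with Hoechst. Nuclei were counted by high-content imaging in senescent and non-senescent IMR90 ER:RAS cultures.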

[2] = tested on: senescent A549 cells (etoposide-induced); assay: Nuclei count senolytic assay, therapy-induced senescence (TIS) model, senescent cells; details: for % Cell Survival: senescence cells, single replicate
Outline: (§1)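 Senescence in A549 cells is induced by 48 h of 100 μM etoposide followed by three days without drug, alongside non-senescent controls. Cells are seeded, rested 24 h, then exposed 72 h to compounds (10 nM–10 μM final, […] steps, triplicate) before nuclei are counted by imaging.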

[3] = tested on: non-senescent control A549 cells; assay: Nuclei count senolytic assay, TIS model, non-senescent control cells; details: for % Cell Survival: control cells, single replicate
Outline: as §1

Q: How did the viability at 10 µM ([1]; IMR-90, 72 h, Control, log (dose) [M] -5, 72 h, mean n=3 (Fig 3C), read-out: Mean % Cell Survival) turn out when `COc1cc(O)c2c(=O)cc(-c3ccc(OC)c(-c4c(O)cc(O)c5c(=O)cc(-c6ccc(O)cc6)oc45)c3)oc2c1` [Ginkgetin, ginkgetin] was run?
A: 37.6%

Q: What about the viability at 4.677 µM ([1]; IMR-90, 72 h, Control, log (dose) [M] -5.33, 72 h, mean n=3 (Fig 3C), read-out: Mean % Cell Survival) of the same molecule?
A: 87%

Q: And the viability at 2.188 µM ([1]; IMR-90, 72 h, Control, log (dose) [M] -5.66, 72 h, mean n=3 (Fig 3C), read-out: Mean % Cell Survival)?
A: 87.7%

Q: And the viability at 1 µM ([1]; IMR-90, 72 h, Control, log (dose) [M] -6, 72 h, mean n=3 (Fig 3C), read-out: Mean % Cell Survival)?
A: 87.1%

Q: And the viability at 0.4677 µM ([1]; IMR-90, 72 h, Control, log (dose) [M] -6.33, 72 h, mean n=3 (Fig 3C), read-out: Mean % Cell Survival)?
A: 85.5%

Q: And the viability at 0.2188 µM ([1]; IMR-90, 72 h, Control, log (dose) [M] -6.66, 72 h, mean n=3 (Fig 3C), read-out: Mean % Cell Survival)?
A: 86.2%

Q: What about the viability at 0.1 µM ([1]; IMR-90, 72 h, Control, log (dose) [M] -7, 72 h, mean n=3 (Fig 3C), read-out: Mean % Cell Survival) of the same molecule?
A: 85.1%

Q: What about the viability at 0.04677 µM ([1]; IMR-90, 72 h, Control, log (dose) [M] -7.33, 72 h, mean n=3 (Fig 3C), read-out: Mean % Cell Survival) of the same molecule?
A: 87.3%

Q: What about the viability at 0.02188 µM ([1]; IMR-90, 72 h, Control, log (dose) [M] -7.66, 72 h, mean n=3 (Fig 3C), read-out: Mean % Cell Survival) of the same molecule?
A: 88.8%

Q: And the viability at 0.01 µM ([1]; IMR-90, 72 h, Control, log (dose) [M] -8, 72 h, mean n=3 (Fig 3C), read-out: Mean % Cell Survival)?
A: 93%

Q: And the viability at 4.677 µM ([1]; IMR-90, control, log (dose) [M] -5.33, individual replicates (Fig 3D), read-out: % Cell Survival)?
A: 83%

Q: And the viability at 2.188 µM ([1]; IMR-90, control, log (dose) [M] -5.66, individual replicates (Fig 3D), read-out: % Cell Survival)?
A: 83.6%

Q: What about the viability at 1 µM ([1]; IMR-90, control, log (dose) [M] -6, individual replicates (Fig 3D), read-out: % Cell Survival) of the same molecule?
A: 78.9%

Q: What about the viability at 0.4677 µM ([1]; IMR-90, control, log (dose) [M] -6.33, individual replicates (Fig 3D), read-out: % Cell Survival) of the same molecule?
A: 82.5%

Q: And the viability at 0.2188 µM ([1]; IMR-90, control, log (dose) [M] -6.66, individual replicates (Fig 3D), read-out: % Cell Survival)?
A: 81.2%

Q: And the viability at 0.1 µM ([1]; IMR-90, control, log (dose) [M] -7, individual replicates (Fig 3D), read-out: % Cell Survival)?
A: 74.3%

Q: What about the viability at 0.01 µM ([1]; IMR-90, control, log (dose) [M] -8, individual replicates (Fig 3D), read-out: % Cell Survival) of the same molecule?
A: 85.3%

Q: And the IC50 ([1]; IMR-90, OIS model, non-senescent IMR90 ER:RAS, nuclei count, 72 h)?
A: 26 µM

Q: And the viability at 10 µM ([2]; Homo sapiens, A549, log (dose) [M] -5, Senescent cells, mean, read-out: Mean % Cell Survival)?
A: 25.9%

Q: And the viability at 4.68 µM ([2]; Homo sapiens, A549, log (dose) [M] -5.33, Senescent cells, mean, read-out: Mean % Cell Survival)?
A: 55.3%

Q: What about the viability at 2.19 µM ([2]; Homo sapiens, A549, log (dose) [M] -5.66, Senescent cells, mean, read-out: Mean % Cell Survival) of the same molecule?
A: 103%

Q: What about the viability at 1 µM ([2]; Homo sapiens, A549, log (dose) [M] -6, Senescent cells, mean, read-out: Mean % Cell Survival) of the same molecule?
A: 115%

Q: And the viability at 0.468 µM ([2]; Homo sapiens, A549, log (dose) [M] -6.33, Senescent cells, mean, read-out: Mean % Cell Survival)?
A: 104%

Q: What about the viability at 0.219 µM ([2]; Homo sapiens, A549, log (dose) [M] -6.66, Senescent cells, mean, read-out: Mean % Cell Survival) of the same molecule?
A: 126%

Q: What about the viability at 0.1 µM ([2]; Homo sapiens, A549, log (dose) [M] -7, Senescent cells, mean, read-out: Mean % Cell Survival) of the same molecule?
A: 85.3%

Q: And the viability at 0.0468 µM ([2]; Homo sapiens, A549, log (dose) [M] -7.33, Senescent cells, mean, read-out: Mean % Cell Survival)?
A: 89.9%

Q: And the viability at 0.0219 µM ([2]; Homo sapiens, A549, log (dose) [M] -7.66, Senescent cells, mean, read-out: Mean % Cell Survival)?
A: 99.8%

Q: What about the viability at 0.01 µM ([2]; Homo sapiens, A549, log (dose) [M] -8, Senescent cells, mean, read-out: Mean % Cell Survival) of the same molecule?
A: 95.8%

Q: And the IC50 ([2]; Homo sapiens, TIS model, etoposide-induced senescent A549, nuclei count, 72 h)?
A: 5.7 µM

Q: What about the “concentration at which a senolytic effect was reached” value ([2]; TIS A549, Hoechst labelling, marginal or no effect on normal cells) of the same molecule?
A: 4.64 µM

Q: And the “senolytic action (in words)” value ([2]; experimental screen, TIS senescent A549)?
A: strong senolytic action

Q: What about the “% Cell Survival” value ([2]; log (dose) [M] -5) of the same molecule?
A: 26.9419% and 20.9924% and 29.7526%

Q: And the “% Cell Survival” value ([2]; log (dose) [M] -5.33)?
A: 57.8726% and 51.7176% and 56.1849%

Q: What about the “% Cell Survival” value ([2]; log (dose) [M] -5.66) of the same molecule?
A: 111.826% and 87.7863% and 107.943%

Q: What about the “% Cell Survival” value ([2]; log (dose) [M] -6) of the same molecule?
A: 147.166% and 101.59% and 95.3776%

Q: What about the “% Cell Survival” value ([2]; log (dose) [M] -6.33) of the same molecule?
A: 97.7607% and 104.262% and 110.807%

Q: What about the “% Cell Survival” value ([2]; log (dose) [M] -6.66) of the same molecule?
A: 107.348% and 137.468% and 133.789%

Q: And the “% Cell Survival” value ([2]; log (dose) [M] -7)?
A: 106.298% and 85.6234% and 63.9323%

Q: And the “% Cell Survival” value ([2]; log (dose) [M] -7.33)?
A: 97.7607% and 95.0382% and 76.8229%

Q: And the “% Cell Survival” value ([2]; log (dose) [M] -7.66)?
A: 110.287% and 102.735% and 86.4583%

Q: And the “% Cell Survival” value ([2]; log (dose) [M] -8)?
A: 107.348% and 95.9288% and 84.0495%

Q: What about the viability at 10 µM ([3]; Homo sapiens, A549, log (dose) [M] -5, Control cells, mean, read-out: Mean % Cell Survival) of the same molecule?
A: 56.2%

Q: What about the viability at 4.68 µM ([3]; Homo sapiens, A549, log (dose) [M] -5.33, Control cells, mean, read-out: Mean % Cell Survival) of the same molecule?
A: 65.7%

Q: And the viability at 2.19 µM ([3]; Homo sapiens, A549, log (dose) [M] -5.66, Control cells, mean, read-out: Mean % Cell Survival)?
A: 98.7%

Q: And the viability at 1 µM ([3]; Homo sapiens, A549, log (dose) [M] -6, Control cells, mean, read-out: Mean % Cell Survival)?
A: 85.7%

Q: And the viability at 0.468 µM ([3]; Homo sapiens, A549, log (dose) [M] -6.33, Control cells, mean, read-out: Mean % Cell Survival)?
A: 31.8%

Q: And the viability at 0.219 µM ([3]; Homo sapiens, A549, log (dose) [M] -6.66, Control cells, mean, read-out: Mean % Cell Survival)?
A: 96.2%

Q: And the viability at 0.1 µM ([3]; Homo sapiens, A549, log (dose) [M] -7, Control cells, mean, read-out: Mean % Cell Survival)?
A: 94%

Q: And the viability at 0.0468 µM ([3]; Homo sapiens, A549, log (dose) [M] -7.33, Control cells, mean, read-out: Mean % Cell Survival)?
A: 96.8%

Q: And the viability at 0.0219 µM ([3]; Homo sapiens, A549, log (dose) [M] -7.66, Control cells, mean, read-out: Mean % Cell Survival)?
A: 95.6%

Q: What about the viability at 0.01 µM ([3]; Homo sapiens, A549, log (dose) [M] -8, Control cells, mean, read-out: Mean % Cell Survival) of the same molecule?
A: 68.4%

Q: What about the IC50 ([3]; Homo sapiens, TIS model, non-senescent A549, nuclei count, 72 h) of the same molecule?
A: 10.4 µM

Q: What about the “% Cell Survival” value ([3]; log (dose) [M] -5) of the same molecule?
A: 52.2043% and 59.0944% and 57.4435%

Q: And the “% Cell Survival” value ([3]; log (dose) [M] -5.33)?
A: 97.7607% and 99.3093%

Q: And the “% Cell Survival” value ([3]; log (dose) [M] -5.66)?
A: 91.6025% and 99.9233% and 104.599%

Q: What about the “% Cell Survival” value ([3]; log (dose) [M] -6) of the same molecule?
A: 75.5773% and 89.4858% and 92.1278%

Q: What about the “% Cell Survival” value ([3]; log (dose) [M] -6.33) of the same molecule?
A: 95.472%

Q: And the “% Cell Survival” value ([3]; log (dose) [M] -6.66)?
A: 87.9636% and 100.998% and 99.7662%

Q: What about the “% Cell Survival” value ([3]; log (dose) [M] -7) of the same molecule?
A: 85.4444% and 99.693% and 96.7264%

Q: What about the “% Cell Survival” value ([3]; log (dose) [M] -7.33) of the same molecule?
A: 92.3723% and 99.3093% and 98.675%

Q: And the “% Cell Survival” value ([3]; log (dose) [M] -7.66)?
A: 89.3632% and 102.916% and 94.4661%

Q: What about the “% Cell Survival” value ([3]; log (dose) [M] -8) of the same molecule?
A: 103.761% and 101.325%
